Values of other authors in patent EP1219700A1, “Cleaning compositions” (UNILEVER PLC, priority 2000, dated 2002).

Details: at 20°C; other common materials, by contrast

SMILES | Water Solubility (g/100g)
O=BO[O-].[Na+] [Sodium perborate anhydrous] | 3.7
O=P(O)(O)OP(=O)(O)OP(=O)(O)O [Sodium tripolyphosphate anhydrous] | 15
